PubChem BioAssay (NCI)
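Assay format: 96-well plates, 48-hour exposure. Here, GI50 denotes the concentration required for 50% inhibition of growth. TGI is the concentration that stops growth completely.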

Tested on: COLO 205 colon
Experiment: DTP human tumour cell line panel, 48 h

Row | SMILES | GI50 [µM] | TGI [µM]
1 | O=[N+]([O-])c1cccc2ccc(N/N=C/c3ccccc3O)nc12 | 1.91 | > 19.8
2 | C=CCc1ccc(O)c(-c2ccc(O)c(CC=C)c2)c1 | 18.5 | 34.1
3 | Cc1nc2ccc(F)cc2c2c1CCN2c1ccc(Cl)cc1 |  | 20.6

Tested on: SF-268 CNS
Experiment: DTP human tumour cell line panel, 48 h

Row | SMILES | TGI [µM] | GI50 [µM]
4 | COc1cc2c(cc1OC)C1C[C@]3(CCN1CC2)C(=O)N(c1ccccc1)C(=O)N3C(C)=O (stereo partly specified) | > 200 | 
5 | CC1=C(CO)C2=C(C)C3(CC3)[C@@](C)(O)C(=O)C2=C1 | 2.57 | 
6 | CC(=O)NC1=N/C(=C\c2ccc(Cl)cc2)C(=O)N1/C=C1\C(=O)Oc2ccccc2C1=O | > 100 | 
7 | O=[N+]([O-])c1cccc2ccc(N/N=C/c3ccccc3O)nc12 | > 100 | > 100
8 | C=CCc1ccc(O)c(-c2ccc(O)c(CC=C)c2)c1 | 28 | 10.8
9 | Cc1nc2ccc(F)cc2c2c1CCN2c1ccc(Cl)cc1 | > 100 | 

Tested on: SF-539 CNS
Experiment: DTP human tumour cell line panel, 48 h

Row | SMILES | TGI [µM] | GI50 [µM]
10 | COc1cc2c(cc1OC)C1C[C@]3(CCN1CC2)C(=O)N(c1ccccc1)C(=O)N3C(C)=O (stereo partly specified) | > 200 | 
11 | CC1=C(CO)C2=C(C)C3(CC3)[C@@](C)(O)C(=O)C2=C1 | 0.371 | 
12 | CC(=O)NC1=N/C(=C\c2ccc(Cl)cc2)C(=O)N1/C=C1\C(=O)Oc2ccccc2C1=O | > 100 | 
13 | O=[N+]([O-])c1cccc2ccc(N/N=C/c3ccccc3O)nc12 | > 100 | > 100
14 | C=CCc1ccc(O)c(-c2ccc(O)c(CC=C)c2)c1 | 31.8 | 16.6
15 | Cc1nc2ccc(F)cc2c2c1CCN2c1ccc(Cl)cc1 | 24.3 | 

Tested on: HOP-92 NSCLC
Experiment: DTP human tumour cell line panel, 48 h

Row | SMILES | TGI [µM] | GI50 [µM]
16 | COc1cc2c(cc1OC)C1C[C@]3(CCN1CC2)C(=O)N(c1ccccc1)C(=O)N3C(C)=O (stereo partly specified) | > 200 | 
17 | CC1=C(CO)C2=C(C)C3(CC3)[C@@](C)(O)C(=O)C2=C1 | 0.639 | 
18 | O=[N+]([O-])c1cccc2ccc(N/N=C/c3ccccc3O)nc12 | > 100 | > 100
19 | C=CCc1ccc(O)c(-c2ccc(O)c(CC=C)c2)c1 | 31.1 | 13.9

Tested on: CCRF-CEM leukemia
Experiment: DTP human tumour cell line panel, 48 h

Row | SMILES | TGI [µM] | GI50 [µM]
20 | CC1=C(CO)C2=C(C)C3(CC3)[C@@](C)(O)C(=O)C2=C1 | > 28.6 | 
21 | CC(=O)NC1=N/C(=C\c2ccc(Cl)cc2)C(=O)N1/C=C1\C(=O)Oc2ccccc2C1=O | > 100 | 
22 | C=CCc1ccc(O)c(-c2ccc(O)c(CC=C)c2)c1 | > 100 | 13.1
23 | Cc1nc2ccc(F)cc2c2c1CCN2c1ccc(Cl)cc1 | 31 | 

Tested on: UACC-62 melanoma
Experiment: DTP human tumour cell line panel, 48 h

Row | SMILES | TGI [µM] | GI50 [µM]
24 | CC(=O)NC1=N/C(=C\c2ccc(Cl)cc2)C(=O)N1/C=C1\C(=O)Oc2ccccc2C1=O | > 100 | 
25 | O=[N+]([O-])c1cccc2ccc(N/N=C/c3ccccc3O)nc12 | > 100 | > 100
26 | C=CCc1ccc(O)c(-c2ccc(O)c(CC=C)c2)c1 | 30 | 16
27 | Cc1nc2ccc(F)cc2c2c1CCN2c1ccc(Cl)cc1 | 39.1 | 

Tested on: KM12 colon
Experiment: DTP human tumour cell line panel, 48 h

Row | SMILES | TGI [µM] | GI50 [µM]
28 | COc1cc2c(cc1OC)C1C[C@]3(CCN1CC2)C(=O)N(c1ccccc1)C(=O)N3C(C)=O (stereo partly specified) | > 200 | 
29 | CC1=C(CO)C2=C(C)C3(CC3)[C@@](C)(O)C(=O)C2=C1 | 2.81 | 
30 | CC(=O)NC1=N/C(=C\c2ccc(Cl)cc2)C(=O)N1/C=C1\C(=O)Oc2ccccc2C1=O | > 100 | 
31 | O=[N+]([O-])c1cccc2ccc(N/N=C/c3ccccc3O)nc12 | > 100 | > 100
32 | C=CCc1ccc(O)c(-c2ccc(O)c(CC=C)c2)c1 | 34 | 13.6

Tested on: TK-10 renal
Experiment: DTP human tumour cell line panel, 48 h

Row | SMILES | TGI [µM] | GI50 [µM]
33 | COc1cc2c(cc1OC)C1C[C@]3(CCN1CC2)C(=O)N(c1ccccc1)C(=O)N3C(C)=O (stereo partly specified) | > 200 | 
34 | CC1=C(CO)C2=C(C)C3(CC3)[C@@](C)(O)C(=O)C2=C1 | 1.13 | 
35 | O=[N+]([O-])c1cccc2ccc(N/N=C/c3ccccc3O)nc12 | > 100 | > 100
36 | C=CCc1ccc(O)c(-c2ccc(O)c(CC=C)c2)c1 | 33.9 | 16
37 | Cc1nc2ccc(F)cc2c2c1CCN2c1ccc(Cl)cc1 | 41.7 | 

Tested on: MDA-MB-435
Experiment: DTP human tumour cell line panel, 48 h

Row | SMILES | TGI [µM] | GI50 [µM]
38 | COc1cc2c(cc1OC)C1C[C@]3(CCN1CC2)C(=O)N(c1ccccc1)C(=O)N3C(C)=O (stereo partly specified) | > 200 | 
39 | CC1=C(CO)C2=C(C)C3(CC3)[C@@](C)(O)C(=O)C2=C1 | 5.81 | 
40 | CC(=O)NC1=N/C(=C\c2ccc(Cl)cc2)C(=O)N1/C=C1\C(=O)Oc2ccccc2C1=O | > 100 | 
41 | O=[N+]([O-])c1cccc2ccc(N/N=C/c3ccccc3O)nc12 | > 100 | > 100
42 | C=CCc1ccc(O)c(-c2ccc(O)c(CC=C)c2)c1 | 31.5 | 14.7
43 | Cc1nc2ccc(F)cc2c2c1CCN2c1ccc(Cl)cc1 | 33.5 | 

Tested on: OVCAR-5 ovarian
Experiment: DTP human tumour cell line panel, 48 h

Row | SMILES | TGI [µM] | GI50 [µM]
44 | COc1cc2c(cc1OC)C1C[C@]3(CCN1CC2)C(=O)N(c1ccccc1)C(=O)N3C(C)=O (stereo partly specified) | > 200 | 
45 | CC1=C(CO)C2=C(C)C3(CC3)[C@@](C)(O)C(=O)C2=C1 | 0.553 | 
46 | CC(=O)NC1=N/C(=C\c2ccc(Cl)cc2)C(=O)N1/C=C1\C(=O)Oc2ccccc2C1=O | > 100 | 
47 | O=[N+]([O-])c1cccc2ccc(N/N=C/c3ccccc3O)nc12 | > 100 | > 100
48 | C=CCc1ccc(O)c(-c2ccc(O)c(CC=C)c2)c1 | 38.9 | 16.8
49 | Cc1nc2ccc(F)cc2c2c1CCN2c1ccc(Cl)cc1 | > 100 | 

Tested on: MDA-MB-231 breast
Experiment: DTP human tumour cell line panel, 48 h

Row | SMILES | TGI [µM] | GI50 [µM]
50 | COc1cc2c(cc1OC)C1C[C@]3(CCN1CC2)C(=O)N(c1ccccc1)C(=O)N3C(C)=O (stereo partly specified) | > 200 | 
51 | CC1=C(CO)C2=C(C)C3(CC3)[C@@](C)(O)C(=O)C2=C1 | 1.34 | 
52 | CC(=O)NC1=N/C(=C\c2ccc(Cl)cc2)C(=O)N1/C=C1\C(=O)Oc2ccccc2C1=O | > 100 | 
53 | O=[N+]([O-])c1cccc2ccc(N/N=C/c3ccccc3O)nc12 | > 100 | > 100
54 | C=CCc1ccc(O)c(-c2ccc(O)c(CC=C)c2)c1 | 25.6 | 12.1
55 | Cc1nc2ccc(F)cc2c2c1CCN2c1ccc(Cl)cc1 | 30.6 | 

Tested on: K-562 leukemia
Experiment: DTP human tumour cell line panel, 48 h

Row | SMILES | TGI [µM] | GI50 [µM]
56 | CC1=C(CO)C2=C(C)C3(CC3)[C@@](C)(O)C(=O)C2=C1 | > 100 | 
57 | CC(=O)NC1=N/C(=C\c2ccc(Cl)cc2)C(=O)N1/C=C1\C(=O)Oc2ccccc2C1=O | > 100 | 
58 | O=[N+]([O-])c1cccc2ccc(N/N=C/c3ccccc3O)nc12 | > 100 | 1.46
59 | C=CCc1ccc(O)c(-c2ccc(O)c(CC=C)c2)c1 | > 46.1 | 8.54
60 | Cc1nc2ccc(F)cc2c2c1CCN2c1ccc(Cl)cc1 | 13.4 | 

Tested on: SN12C renal
Experiment: DTP human tumour cell line panel, 48 h

Row | SMILES | TGI [µM] | GI50 [µM]
61 | COc1cc2c(cc1OC)C1C[C@]3(CCN1CC2)C(=O)N(c1ccccc1)C(=O)N3C(C)=O (stereo partly specified) | > 200 | 
62 | CC1=C(CO)C2=C(C)C3(CC3)[C@@](C)(O)C(=O)C2=C1 | 5.21 | 
63 | CC(=O)NC1=N/C(=C\c2ccc(Cl)cc2)C(=O)N1/C=C1\C(=O)Oc2ccccc2C1=O | > 100 | 
64 | O=[N+]([O-])c1cccc2ccc(N/N=C/c3ccccc3O)nc12 | > 100 | > 100
65 | C=CCc1ccc(O)c(-c2ccc(O)c(CC=C)c2)c1 | 29.6 | 14.4
66 | Cc1nc2ccc(F)cc2c2c1CCN2c1ccc(Cl)cc1 | 97.6 | 

Tested on: HS 578T breast
Experiment: DTP human tumour cell line panel, 48 h

Row | SMILES | TGI [µM] | GI50 [µM]
67 | CC1=C(CO)C2=C(C)C3(CC3)[C@@](C)(O)C(=O)C2=C1 | 1.51 | 
68 | CC(=O)NC1=N/C(=C\c2ccc(Cl)cc2)C(=O)N1/C=C1\C(=O)Oc2ccccc2C1=O | 6.22 | 
69 | O=[N+]([O-])c1cccc2ccc(N/N=C/c3ccccc3O)nc12 | > 100 | 72.4
70 | C=CCc1ccc(O)c(-c2ccc(O)c(CC=C)c2)c1 | 39.7 | 14.2
71 | Cc1nc2ccc(F)cc2c2c1CCN2c1ccc(Cl)cc1 | 79.5 | 

Tested on: NCI-H23 lung
Experiment: DTP human tumour cell line panel, 48 h

Row | SMILES | TGI [µM] | GI50 [µM]
72 | COc1cc2c(cc1OC)C1C[C@]3(CCN1CC2)C(=O)N(c1ccccc1)C(=O)N3C(C)=O (stereo partly specified) | > 200 | 
73 | CC1=C(CO)C2=C(C)C3(CC3)[C@@](C)(O)C(=O)C2=C1 | 0.284 | 
74 | CC(=O)NC1=N/C(=C\c2ccc(Cl)cc2)C(=O)N1/C=C1\C(=O)Oc2ccccc2C1=O | > 100 | 
75 | O=[N+]([O-])c1cccc2ccc(N/N=C/c3ccccc3O)nc12 | > 100 | > 100
76 | C=CCc1ccc(O)c(-c2ccc(O)c(CC=C)c2)c1 | 34.4 | 16.3
77 | Cc1nc2ccc(F)cc2c2c1CCN2c1ccc(Cl)cc1 | 48.2 | 
